Test results from article PMC6394990, “Detailed characterization of the solution kinetics and thermodynamics of biotin, biocytin and HABA binding to avidin and streptavidin” (PLoS ONE, 2019).
Where two headings read alike, the source gives them in different places.

Target: T1, avidin (AV) (Gallus gallus, UniProt P02701)
T1 construct: purchased Calbiochem (La Jolla, CA)
Assay: Stopped-flow association kinetics of dye-labeled biotin probes binding to avidin (F(t), rF(t); Arrhenius plots/global fitting)
Design: ln(k) / dS+ / dG+ / Eon for BFl / b of the line y = m1x+b1: unit not given here
Conditions: for k(average): k (full value)
Procedure: These reactions were carried out in a buffered solution of 10 mM Tris-HCl, 100 mM KCl, 2.5 mM MgCl2 and 1 mM CaCl2 at pH 8 and only AV-BcO reactions included pH 9 and 10. The concentrations, after mixing, were of 20 nM of dye-labeled B7 probe and 260 nM, 520 nM or 1040 nM of AV; and 200 nM, 300 nM, 400 nM or 800 nM of SAV at temperatures of 10, 15, 20 and 25°C. The deglycosylation of AV (for comparative association reactions) was carried out using the provided standard protocol with endoglycosidase H [47], both with and without incubation of a denaturant solution (2% SDS and 1M 2-mercaptoethanol).
The reactions were collected with the SF instrument, described previously. The fluorescence signal was collected through a 520 nm interference filter (Oriel Corp., Stratford, CT) with a detector time constant and SF dead time of 1 μs and 1 ms, respectively. The excitation light was provided by the Coherent Ar^+ ion laser (described above) at 488 nm with […] of incident power on the reaction cuvette. The laser source was followed by the photo-elastic modulator described above with the axis oriented 45^o with respect to the electric vector of the incident light and with the half-wave modulation (50 kHz) set for 488 nm excitation. The demodulation circuitry following the photomultiplier provided a DC(t) and a rectified AC(t) which were converted to digital data by a high-speed digitizer (PCI-5122) from National Instruments (Austin, TX) with 14-bit resolution and 100 MHz bandwidth, through channels 0 and 1. The data acquisition was controlled by LabVIEW (Vr 8) software at a collection rate of 6120 data points/second and stored in spreadsheets. The AC(t) and DC(t) data were baseline corrected before obtaining the signal ratio (Eq 4) as a function of time (ρt).
The constant AGain is the instrumental amplitude gain and was evaluated by solving ρ(t) using the known steady state anisotropy (rss) of the complexes which is equivalent to the r(t) at t = ∞; and H, obtained from the equivalent grating factor (G) for the filters and photo multiplier tubes in the SF. For the probes used in here G was 0.82 and H = (1-G)/(1+G) = 0.099. Knowing Again and H, the AC(t) and DC(t) signals can be solved for r(t) and F(t) (Eqs 4 and 5) and the normalized fluorescence, F¯(t) , and corrected fluorescence anisotropy, rF¯(t), were obtained when F¯(0) and rF¯(0) were scaled to 1 at t = 0.
The F¯(t) (Eq 6) is equivalent to (I||) + 2 (I⊥) and proportional to quantum yield (QYi), molar absorptivity (εi) and to the formation or disappearance of the emitting species Xi(t); and rF¯(t) including the steady state anisotropies (rss) of each fluorescent species (Eq 7).
The possible reaction models were discriminated by the squared residuals of the observed and calculated association traces of both fluorescence and anisotropy fluorescence signals, F¯(t) and rF¯(t) , respectively.

T1 sequence (P02701 25-152): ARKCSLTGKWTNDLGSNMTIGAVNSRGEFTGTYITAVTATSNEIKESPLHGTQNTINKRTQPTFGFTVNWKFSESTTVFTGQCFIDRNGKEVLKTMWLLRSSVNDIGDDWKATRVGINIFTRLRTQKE

**Q.** What does the source list for `NC(CCCCNC(=O)CCCC[C@@H]1SC[C@@H]2NC(=O)N[C@@H]21)C(=O)NCCCCCNC(=O)c1ccc(-c2c3cc(F)c(=O)cc-3oc3cc(O)c(F)cc23)c(C(=O)O)c1` (some centres unmarked) [BcO, Oregon green 488 Biocytin]?
**A.** kon fold slower than Green's 7 × 10^7 M^-1s^-1 (25°C and pH 8 vs 25°C and pH 5): 7.4 X; fold by which the SPR kon (ref 20) is slower than the kon of the probe (AV): ~ 5 X; b of the line y = m1x+b1 (AV 1, reacting with BcO): 40.2925; slope, m of the line y = m1x+b1 (AV 1, reacting with BcO, x = 1/Temp): -7277.8; kon by corrected fluorescence anisotropy rF(t) (AV-BcO, 10 °C, 260 nM): 2.7e+06 ± 100000 M⁻¹ s⁻¹; kon (AV-BcO, 10 °C, 260 nM, read-out: kon by corrected fluorescence anisotropy rF(t)): 2.65e+06 M⁻¹ s⁻¹; kon (AV-BcO, 10 °C, 260 nM, read-out: kon by fluorescence change F(t)): 2.4e+06 ± 100000 M⁻¹ s⁻¹; kon (AV-BcO, 10 °C, 260 nM, read-out: kon by fluorescence change F(t), right block without spread): 2.42e+06 M⁻¹ s⁻¹; kon by corrected fluorescence anisotropy rF(t) (AV-BcO, 10 °C, 520 nM): 2.7e+06 ± 100000 M⁻¹ s⁻¹; kon (AV-BcO, 10 °C, 520 nM, read-out: kon by corrected fluorescence anisotropy rF(t)): 2.69e+06 M⁻¹ s⁻¹; kon (AV-BcO, 10 °C, 520 nM, read-out: kon by fluorescence change F(t)): 2.6e+06 ± 200000 M⁻¹ s⁻¹; kon (AV-BcO, 10 °C, 520 nM, read-out: kon by fluorescence change F(t), right block without spread): 2.61e+06 M⁻¹ s⁻¹; kon by corrected fluorescence anisotropy rF(t) (AV-BcO, 10 °C, 1040 nM): 2.7e+06 ± 100000 M⁻¹ s⁻¹; kon (AV-BcO, 10 °C, 1040 nM, read-out: kon by corrected fluorescence anisotropy rF(t)): 2.72e+06 M⁻¹ s⁻¹; kon (AV-BcO, 10 °C, 1040 nM, read-out: kon by fluorescence change F(t)): 2.5e+06 ± 200000 M⁻¹ s⁻¹; kon (AV-BcO, 10 °C, 1040 nM, read-out: kon by fluorescence change F(t), right block without spread): 2.52e+06 M⁻¹ s⁻¹; kon (AV-BcO, 10 °C, average of F(t) and rF(t) at 260, 520, 1040 nM, read-out: kon, Average): 2.6e+06 M⁻¹ s⁻¹; kon by corrected fluorescence anisotropy rF(t) (AV-BcO, 15 °C, 260 nM): 4e+06 ± 100000 M⁻¹ s⁻¹; kon (AV-BcO, 15 °C, 260 nM, read-out: kon by corrected fluorescence anisotropy rF(t)): 4e+06 M⁻¹ s⁻¹; kon (AV-BcO, 15 °C, 260 nM, read-out: kon by fluorescence change F(t)): 4.1e+06 ± 100000 M⁻¹ s⁻¹; kon (AV-BcO, 15 °C, 260 nM, read-out: kon by fluorescence change F(t), right block without spread): 4.1e+06 M⁻¹ s⁻¹; kon by corrected fluorescence anisotropy rF(t) (AV-BcO, 15 °C, 520 nM): 3.82e+06 ± 100000 M⁻¹ s⁻¹; kon (AV-BcO, 15 °C, 520 nM, read-out: kon by corrected fluorescence anisotropy rF(t)): 3.82e+06 M⁻¹ s⁻¹; kon (AV-BcO, 15 °C, 520 nM, read-out: kon by fluorescence change F(t)): 3.95e+06 ± 100000 M⁻¹ s⁻¹; kon (AV-BcO, 15 °C, 520 nM, read-out: kon by fluorescence change F(t), right block without spread): 3.95e+06 M⁻¹ s⁻¹; kon by corrected fluorescence anisotropy rF(t) (AV-BcO, 15 °C, 1040 nM): 4e+06 ± 200000 M⁻¹ s⁻¹; kon (AV-BcO, 15 °C, 1040 nM, read-out: kon by corrected fluorescence anisotropy rF(t)): 4e+06 M⁻¹ s⁻¹; kon (AV-BcO, 15 °C, 1040 nM, read-out: kon by fluorescence change F(t)): 3.9e+06 ± 200000 M⁻¹ s⁻¹; kon (AV-BcO, 15 °C, 1040 nM, read-out: kon by fluorescence change F(t), right block without spread): 3.9e+06 M⁻¹ s⁻¹; kon (AV-BcO, 15 °C, average of F(t) and rF(t) at 260, 520, 1040 nM, read-out: kon, Average): 4e+06 M⁻¹ s⁻¹; kon (AV-BcO, 20 °C, 260 nM, read-out: kon by corrected fluorescence anisotropy rF(t)): 5.9e+06 M⁻¹ s⁻¹; kon (AV-BcO, 20 °C, 260 nM, read-out: kon by fluorescence change F(t)): 5.7e+06 ± 100000 M⁻¹ s⁻¹; kon (AV-BcO, 20 °C, 260 nM, read-out: kon by fluorescence change F(t), right block without spread): 5.7e+06 M⁻¹ s⁻¹; kon by corrected fluorescence anisotropy rF(t) (AV-BcO, 20 °C, 520 nM): 5.8e+06 ± 100000 M⁻¹ s⁻¹; kon (AV-BcO, 20 °C, 520 nM, read-out: kon by corrected fluorescence anisotropy rF(t)): 5.8e+06 M⁻¹ s⁻¹; kon (AV-BcO, 20 °C, 520 nM, read-out: kon by fluorescence change F(t)): 5.9e+06 ± 300000 M⁻¹ s⁻¹; kon (AV-BcO, 20 °C, 520 nM, read-out: kon by fluorescence change F(t), right block without spread): 5.9e+06 M⁻¹ s⁻¹; kon by corrected fluorescence anisotropy rF(t) (AV-BcO, 20 °C, 1040 nM): 6.1e+06 ± 100000 M⁻¹ s⁻¹; kon (AV-BcO, 20 °C, 1040 nM, read-out: kon by corrected fluorescence anisotropy rF(t)): 6.1e+06 M⁻¹ s⁻¹; kon (AV-BcO, 20 °C, 1040 nM, read-out: kon by fluorescence change F(t)): 6e+06 ± 100000 M⁻¹ s⁻¹; kon (AV-BcO, 20 °C, 1040 nM, read-out: kon by fluorescence change F(t), right block without spread): 6e+06 M⁻¹ s⁻¹; kon (AV-BcO, 20 °C, average of F(t) and rF(t) at 260, 520, 1040 nM, read-out: kon, Average): 5.9e+06 M⁻¹ s⁻¹; kon (AV-BcO, 25 °C, 260 nM, read-out: kon by corrected fluorescence anisotropy rF(t)): 9.5e+06 M⁻¹ s⁻¹; kon (AV-BcO, 25 °C, 260 nM, read-out: kon by fluorescence change F(t)): 9.5e+06 ± 100000 M⁻¹ s⁻¹; kon (AV-BcO, 25 °C, 260 nM, read-out: kon by fluorescence change F(t), right block without spread): 9.5e+06 M⁻¹ s⁻¹; kon (AV-BcO, 25 °C, 520 nM, read-out: kon by corrected fluorescence anisotropy rF(t)): 9.5e+06 M⁻¹ s⁻¹; kon (AV-BcO, 25 °C, 520 nM, read-out: kon by fluorescence change F(t)): 9.5e+06 ± 300000 M⁻¹ s⁻¹; kon (AV-BcO, 25 °C, 520 nM, read-out: kon by fluorescence change F(t), right block without spread): 9.5e+06 M⁻¹ s⁻¹; kon by corrected fluorescence anisotropy rF(t) (AV-BcO, 25 °C, 1040 nM): 9.4e+06 ± 200000 M⁻¹ s⁻¹; kon (AV-BcO, 25 °C, 1040 nM, read-out: kon by corrected fluorescence anisotropy rF(t)): 9.4e+06 M⁻¹ s⁻¹; kon (AV-BcO, 25 °C, 1040 nM, read-out: kon by fluorescence change F(t)): 9.7e+06 ± 300000 M⁻¹ s⁻¹; kon (AV-BcO, 25 °C, 1040 nM, read-out: kon by fluorescence change F(t), right block without spread): 9.7e+06 M⁻¹ s⁻¹; kon (AV-BcO, 25 °C, average of F(t) and rF(t) at 260, 520, 1040 nM, read-out: kon, Average): 9.5e+06 M⁻¹ s⁻¹; Ea^Forward (AV, pH 8): 14.4 ± 0.6 kcal/mol; ln(k) (AV, pH8, 10 (283.15 K)): 14.8; k(average) (AV, pH8, 10 (283.15 K)): 2.60E+06; kon (AV, pH8, 10 (283.15 K), k (scaled)): 2.6e+06 M⁻¹ s⁻¹; ln(k) (AV, pH8, 15 (288.15 K)): 15.2; k(average) (AV, pH8, 15 (288.15 K)): 3.90E+06; kon (AV, pH8, 15 (288.15 K), k (scaled)): 3.9e+06 M⁻¹ s⁻¹; ln(k) (AV, pH8, 20 (293.15 K)): 15.6; k(average) (AV, pH8, 20 (293.15 K)): 5.90E+06; kon (AV, pH8, 20 (293.15 K), k (scaled)): 5.9e+06 M⁻¹ s⁻¹; ln(k) (AV, pH8, 25 (298.15 K)): 16.1; k(average) (AV, pH8, 25 (298.15 K)): 9.50E+06; kon (AV, pH8, 25 (298.15 K), k (scaled)): 9.5e+06 M⁻¹ s⁻¹; ΔG^ǂ (AV, pH 8, forward): 4.6 ± 0.3 kcal/mol; ΔS^ǂ (AV, pH 8, forward): 33.0 ± 2.5 cal/°K·mol; Ea^Forward (AV, pH 9): 13.9 ± 0.7 kcal/mol; ln(k) (AV, pH 9, 10 (283.15 K)): 14.7; k(average) (AV, pH 9, 10 (283.15 K)): 2.31E+06; kon (AV, pH 9, 10 (283.15 K), k (scaled)): 2.3e+06 M⁻¹ s⁻¹; ln(k) (AV, pH 9, 15 (288.15 K)): 15.0; k(average) (AV, pH 9, 15 (288.15 K)): 3.36E+06
